Counter-ions that a name gives are not always drawn.
Tests used:
[1] = system: Acinetobacter calcoaceticus CMX 669; assay: In vitro antibacterial activity, MIC by agar dilution; format: cell-based; details: BHI agar, 35-37°C, 20-24 hours, unit assumed
Summary of the method: (§1)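 Plates were inoculated with 1:100 dilutions of each strain (1:10 for slow growers) via Steers replicator delivering approximately 10^4 CFU, then incubated at about 35–37°C for approximately 20–24 hours. MIC is the lowest compound concentration giving no growth versus a compound-free BHI agar growth control.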

[2] = system: Enterobacter aerogenes ATCC 13048; assay: as above; format: cell-based; details: BHI agar, 35-37°C, 20-24 hours, unit assumed
Summary of the method: as §1

[3] = system: Enterococcus faecium ATCC 8043; assay: as above; format: cell-based; details: BHI agar, 35-37°C, 20-24 hours, unit assumed
Summary of the method: as §1

Escherichia coli DC-2 = assay: as above; format: cell-based; details: BHI agar, 35-37°C, 20-24 hours, unit assumed
Summary of the method: as §1

Escherichia coli H560 = assay: as above; format: cell-based; details: BHI agar, 35-37°C, 20-24 hours, unit assumed
Summary of the method: as §1

Escherichia coli JUHL [4] = assay: as above; format: cell-based; details: BHI agar, 35-37°C, 20-24 hours, unit assumed
Summary of the method: as §1

Escherichia coli KNK 437 = assay: as above; format: cell-based; details: BHI agar, 35-37°C, 20-24 hours, unit assumed
Summary of the method: as §1

Escherichia coli SS = assay: as above; format: cell-based; details: BHI agar, 35-37°C, 20-24 hours, unit assumed
Summary of the method: as §1

[5] = system: Klebsiella pneumoniae ATCC 8045; assay: as above; format: cell-based; details: BHI agar, 35-37°C, 20-24 hours, unit assumed
Summary of the method: as §1

[6] = system: Micrococcus luteus ATCC 4698; assay: as above; format: cell-based; details: BHI agar, 35-37°C, 20-24 hours, unit assumed
Summary of the method: as §1

[7] = system: Micrococcus luteus ATCC 9341; assay: as above; format: cell-based; details: BHI agar, 35-37°C, 20-24 hours, unit assumed
Summary of the method: as §1

[8] = system: Providencia stuartii CMX 640; assay: as above; format: cell-based; details: BHI agar, 35-37°C, 20-24 hours, unit assumed
Summary of the method: as §1

[9] = system: Pseudomonas aeruginosa 2862; assay: as above; format: cell-based; details: BHI agar, 35-37°C, 20-24 hours, unit assumed
Summary of the method: as §1

[10] = system: Pseudomonas aeruginosa 5263; assay: as above; format: cell-based; details: BHI agar, 35-37°C, 20-24 hours, unit assumed
Summary of the method: as §1

[11] = system: Pseudomonas aeruginosa A5007; assay: as above; format: cell-based; details: BHI agar, 35-37°C, 20-24 hours, unit assumed
Summary of the method: as §1

[12] = system: Pseudomonas aeruginosa BMH10; assay: as above; format: cell-based; details: BHI agar, 35-37°C, 20-24 hours, unit assumed
Summary of the method: as §1

[13] = system: Pseudomonas aeruginosa K799/61; assay: as above; format: cell-based; details: BHI agar, 35-37°C, 20-24 hours, unit assumed
Summary of the method: as §1

[14] = system: Pseudomonas aeruginosa K799/WT; assay: as above; format: cell-based; details: BHI agar, 35-37°C, 20-24 hours, unit assumed
Summary of the method: as §1

Pseudomonas cepacia 296I = assay: as above; format: cell-based; details: BHI agar, 35-37°C, 20-24 hours, unit assumed
Summary of the method: as §1

[15] = system: Staphylococcus aureus 1775; assay: as above; format: cell-based; details: BHI agar, 35-37°C, 20-24 hours, unit assumed
Summary of the method: as §1

[16] = system: Staphylococcus aureus 642A; assay: as above; format: cell-based; details: BHI agar, 35-37°C, 20-24 hours, unit assumed
Summary of the method: as §1

[17] = system: Staphylococcus aureus A-5278; assay: as above; format: cell-based; details: BHI agar, 35-37°C, 20-24 hours, unit assumed
Summary of the method: as §1

[18] = system: Staphylococcus aureus A5177; assay: as above; format: cell-based; details: BHI agar, 35-37°C, 20-24 hours, unit assumed
Summary of the method: as §1

[19] = system: Staphylococcus aureus ATCC 6538P; assay: as above; format: cell-based; details: BHI agar, 35-37°C, 20-24 hours, unit assumed
Summary of the method: as §1

[20] = system: Staphylococcus aureus CMX 553; assay: as above; format: cell-based; details: BHI agar, 35-37°C, 20-24 hours, unit assumed
Summary of the method: as §1

[21] = system: Staphylococcus aureus NCTC 10649; assay: as above; format: cell-based; details: BHI agar, 35-37°C, 20-24 hours, unit assumed
Summary of the method: as §1

[22] = system: Staphylococcus epidermidis 3519; assay: as above; format: cell-based; details: BHI agar, 35-37°C, 20-24 hours, unit assumed
Summary of the method: as §1

[23] = system: Streptococcus agalactaciae CMX 508; assay: as above; format: cell-based; details: BHI agar, 35-37°C, 20-24 hours, unit assumed
Summary of the method: as §1

[24] = system: Streptococcus bovis A5169; assay: as above; format: cell-based; details: BHI agar, 35-37°C, 20-24 hours, unit assumed
Summary of the method: as §1

[25] = system: Streptococcus pyrogenes 2548 INDUC; assay: as above; format: cell-based; details: BHI agar, 35-37°C, 20-24 hours, unit assumed
Summary of the method: as §1

[26] = system: Streptococcus pyrogenes CONST; assay: as above; format: cell-based; details: BHI agar, 35-37°C, 20-24 hours, unit assumed
Summary of the method: as §1

[27] = system: Streptococcus pyrogenes EES61; assay: as above; format: cell-based; details: BHI agar, 35-37°C, 20-24 hours, unit assumed
Summary of the method: as §1

[28] = system: Staphylococcus aureus NCTC 10649; assay: In vivo antibacterial activity in mice (protection from lethal intraperitoneal infection); details: NCTC10649, 144 h, S. aureus, CF-1 female mice infected intraperitoneally with 100 times the LD50, treated at 1 and 5 hr after infection, cumulative mortalities on the sixth day
Method: (§2) The in vivo antibacterial activity of the compounds of the present invention was determined as follows: Aqueous solutions of the test compounds were prepared by dissolving the compound in distilled water, except for the compounds of examples 169 and 170 which were dissolved in a solution of 2% DMSO in distilled water.
(§3) After 18 hr incubation, a culture of Staphylococcus aureus NCTC 10649 was serially diluted by using 10-fold dilutions in 5% (w/v) hog gastric mucin. Cultures (0.5 mL) in a dilution from 10^-1 to 10^-8 were injected intraperitoneally into CF-1 female mice weighing approximately 20g. The LD50 (median lethal dose) for the test organism was calculated from the cumulative mortalities on the sixth day by the using the Reed and Muench procedure (Reed, L.J., and H. Muench, Amer. J. Hygiene, 27, 493 (1938)).
(§4) The above 18 hr culture was diluted in 5% (w/v) hog gastric mucin to obtain 100 times the LD50, and 0.5 mL was injected intraperitoneally into mice. The mice were treated subcutaneously (sc) or orally (po) with a specific amount of the test compound divided equally to be administered at 1 and 5 hr after infection. A group of 10 animals each for at least three dose levels was thus treated, and the deaths were recorded daily for 6 days. Ten mice were left untreated as infection control. ED50 values were calculated from the cumulative mortalities on the sixth day after infection by using the trimmed version of the Logit method ( Hamilton, M.A., R.C. Russo, and R.V. Thurston, Environ. Sci. Technol. 11, 714 (1977)).

Escherichia coli JUHL [29] = assay: as above; details: 144 h, E. coli JUHL, mice infected intraperitoneally, treated at 1 and 5 hr after infection, cumulative mortalities on the sixth day
Method: as §2, §3, §4
The LD50 for Escherichia coli JUHL was determined in a manner similar to that above for S. aureus. The 18 hr cultures of this organism were also prepared for po and sc testing in mice, from which ED50 values were calculated. Positive controls were run with temafloxacin as the test compound, for which ED50 values were also calculated.

Structure (SMILES) | MIC values [1] [µg/mL] | MIC values [2] [µg/mL] | MIC values [3] [µg/mL] | MIC values (Escherichia coli DC-2) [µg/mL] | MIC values (Escherichia coli H560) [µg/mL] | MIC values (Escherichia coli JUHL [4]) [µg/mL] | MIC values (Escherichia coli KNK 437) [µg/mL] | MIC values (Escherichia coli SS) [µg/mL] | MIC values [5] [µg/mL] | MIC values [6] [µg/mL] | MIC values [7] [µg/mL] | MIC values [8] [µg/mL] | MIC values [9] [µg/mL] | MIC values [10] [µg/mL] | MIC values [11] [µg/mL] | MIC values [12] [µg/mL] | MIC values [13] [µg/mL] | MIC values [14] [µg/mL] | MIC values (Pseudomonas cepacia 296I) [µg/mL] | MIC values [15] [µg/mL] | further results
CCC[C@H](N)C(=O)NC1CCN(c2nc3c(-c4ccc(F)cc4F)cc(C(=O)O)c(=O)n3cc2F)C1 (stereo partly drawn) [Example 166, 9-(2,4-Difluorophenyl)-3-fluoro-2-(3-(N-(S)-norvalyl)aminopyrrolidin-1-yl)-6H-6-oxopyrido[1,2-a]pyrimidine-7-carboxylic acid hydrochloride salt] | 3.1 | 3.1 | 12.5 | 12.5 | 0.78 | 0.78 | 6.2 | 0.05 | 1.56 | 25 | 50 | > 100 | > 100 | > 100 | 6.2 | 3.1 | 0.39 | 6.2 | > 100 | > 100 | MIC values [16]: 1.56 µg/mL; MIC values [17]: 1.56 µg/mL; MIC values [18]: 1.56 µg/mL; MIC values [19]: 0.39 µg/mL; MIC values [20]: 3.1 µg/mL; MIC values [21]: 0.39 µg/mL; MIC values [22]: 0.78 µg/mL; MIC values [23]: 3.1 µg/mL; MIC values [24]: 25 µg/mL; MIC values [25]: 1.56 µg/mL; MIC values [26]: 1.56 µg/mL; MIC values [27]: 1.56 µg/mL; ED50 ([28]; po): > 24 mg/kg; ED50 ([28]; sc): 8 mg/kg; ED50 (Escherichia coli JUHL [29]; po): 25 mg/kg; ED50 (Escherichia coli JUHL [29]; sc): < 2.5 mg/kg
C[C@H]1C[C@H](N)CN1c1nc2c(-c3ccc(F)cc3F)cc(C(=O)O)c(=O)n2cc1F [Example 171, 2-((2S,4S)-4-Amino-2-methylpyrrolidin-1-yl)-9-(2,4-difluorophenyl)-3-fluoro-6H-6-oxopyrido[1,2-a]pyrimidine-7-carboxylic acid hydrochloride] | 0.05 | 0.1 | 0.78 | 0.78 | 0.02 | 0.02 | 0.39 | 0.001 | 0.01 | 0.78 | 3.1 | 6.2 | 50 | 50 | 0.39 | 0.2 | 0.05 | 0.39 | 6.2 | 50 | MIC values [16]: 0.2 µg/mL; MIC values [17]: 0.1 µg/mL; MIC values [18]: 0.1 µg/mL; MIC values [19]: 0.1 µg/mL; MIC values [20]: 0.2 µg/mL; MIC values [21]: 0.1 µg/mL; MIC values [22]: 0.2 µg/mL; MIC values [23]: 0.78 µg/mL; MIC values [24]: 1.56 µg/mL; MIC values [25]: 0.39 µg/mL; MIC values [26]: 0.78 µg/mL; MIC values [27]: 0.78 µg/mL; ED50 ([28]; po): 12.8 mg/kg; ED50 ([28]; sc): > 8 mg/kg; ED50 (Escherichia coli JUHL [29]; po): > 20 mg/kg; ED50 (Escherichia coli JUHL [29]; sc): 4.8 mg/kg

Reference: patent EP0527889B1, “QUINOLIZINONE TYPE COMPOUNDS” (priority 1990, dated 1991)
